Results taken from patent US20220348592A1, “FUSED HETEROCYCLIC DERIVATIVES” (Janssen Sciences Ireland Unlimited Company, priority 2019, published 2022).

What was measured:
[1] = tested on: HBV; assay: Anti-HBV activity: intracellular HBV DNA by real-time PCR in HepG2.117 cell line; type: cell-based, Hepatitis B virus; conditions: Hepatitis B virus, 72 h; HepG2.117 cells, 3 days of treatment, intracellular HBV DNA by real-time PCR, mean value; read-out: HBV-AVE-HepG2.117 EC50 (μM, mean value)
Experimental: The anti HBV activity was measured using the HepG2.117 cell line, a stable, inducibly HBV producing cell line, which replicates HBV in the absence of doxicycline (Tet-off system). The HepG2 cell line is available from ATCC® under number HB-8065. Transfection of the HepG2 cell line can be as described in Sun and Nassal 2006 Journal of Hepatology 45 (2006) 636-645 “Stable HepG2- and Huh7-based human hepatoma cell lines for efficient regulated expression of infectious hepatitis B virus”.
For the antiviral assay, HBV replication was induced, followed by a treatment with serially diluted compound in 96-well plates. After 3 days of treatment, the antiviral activity was determined by quantification of intracellular HBV DNA using real-time PCR and an HBV specific primer set and probe.

[2] = Cytotoxicity in HepG2.117 cells, ATPlite Luminescence Assay; type: cell-based, human; conditions: human, incubated for 3 days, mean value, read-out: TOX-HepG2.117 CC50 (μM, mean value)
Experimental: Cytotoxicity of the compounds was tested using HepG2 or HepG2.117 cells, incubated for 3 days in the presence of compounds. The viability of the cells was assessed using the PERKIN ELMER ATPlite Luminescence Assay System.”

| Structure (SMILES) | EC50 [1] [µM] | CC50 at 3 days [2] [µM] |
| --- | --- | --- |
| C=C1CN(C)C(=O)c2c3c(nn2C1)C[C@@H](C)N(C(=O)c1ccc(Cl)c(Cl)c1)C3 [Compound 42, (3R)-2-(3,4-Dichlorobenzoyl)-3,10-dimethyl-8-methylidene-1,2,3,4,7,8,9,10-octahydro-11H-pyrido[4′,3′:3,4]pyrazolo[1,5-a][1,4]diazepin-11-one] | 0.308 | 1.44 |
| C=C1CN(CC(F)(F)F)C(=O)c2c3c(nn2C1)CCN(C(=O)c1ccc(Cl)c(Cl)c1)C3 [Compound 43, 2-(3,4-Dichlorobenzoyl)-8-methylidene-10-(2,2,2-trifluoroethyl)-1,2,3,4,7,8,9,10-octahydro-11H-pyrido[4′,3′:3,4]pyrazolo[1,5-a][1,4]diazepin-11-one] | 0.21 | > 50 |
| C[C@@H]1Cc2nn3c(c2CN1C(=O)c1ccc(Cl)c(Cl)c1)C(=O)N(C)C[C@@H](F)C3 [Compound 44] | 0.079 | > 50 |
| O=C(c1ccc(Cl)c(Cl)c1)N1CCc2nn3c(c2C1)C(=S)NCCC3 [Compound 48, (3,4-dichlorophenyl)(11-sulfanylidene-1,3,4,7,8,9,10,11-octahydro-2H-pyrido[4′,3′:3,4]pyrazolo-[1,5-a][1,4]diazepin-2-yl)methanone] | 1.23 | > 50 |
| COc1ccc(CN2CCn3nc4c(c3C2=O)CN(C(=O)c2ccc(F)c(C)c2)CC4)cc1 [Example C49] | 0.274 | 20.6 |
| COc1ccc(CN2CCn3nc4c(c3C2=O)CN(C(=O)c2ccc(F)c(C#N)c2)CC4)cc1 [Example C52] | 0.995 | > 50 |
| COc1ccc(CN2CCn3nc4c(c3C2=O)CN(C(=O)c2ccc(C)c(F)c2)CC4)cc1 [Example C53] | 1.08 | 20.4 |
| COc1ccc(CN2CCn3nc4c(c3C2=O)CN(C(=O)c2cccc(Cl)c2)CC4)cc1 [Example C54] | 1.99 | 13.6 |
| COc1ccc(CN2CCn3nc4c(c3C2=O)CN(C(=O)c2cc(F)c(F)c(F)c2)CC4)cc1 [Example C56] | 0.962 | 28.4 |
| COc1ccc(CN2CCn3nc4c(c3C2=O)CN(C(=O)c2ccc(Cl)c(C(F)F)c2)CC4)cc1 [Example C57] | 0.04 | 18.9 |
| COc1ccc(CCN2CCn3nc4c(c3C2=O)CN(C(=O)c2ccc(Cl)c(Cl)c2)[C@H](C)C4)cc1 [Example C58] | 0.531 | 18 |
| C[C@@H]1Cc2nn3c(c2CN1C(=O)c1ccc(Cl)c(Cl)c1)C(=O)N(Cc1ncccn1)CC3 [Example C60] | 0.565 | > 50 |
| COc1ccc(CN2CCn3nc4c(c3C2=O)CN(C(=O)c2ccc(C(F)F)c(Cl)c2)CC4)cc1 [Example C62] | 0.13 | 9.31 |
| COc1ccc(CN2CCn3nc4c(c3C2=O)CN(C(=O)c2ccc(Cl)c(C#N)c2)CC4)cc1 [Example C64] | 0.089 | > 49 |
| C[C@@H]1Cc2nn3c(c2CN1C(=O)c1ccc(Cl)c(Cl)c1)C(=O)N(Cc1cnccn1)CC3 [Example C65] | 0.299 | > 50 |
| C[C@@H]1Cc2nn3c(c2CN1C(=O)c1ccc(Cl)c(Cl)c1)C(=O)N(Cc1cccc(OC(F)F)c1)CC3 [Example C66] | 0.042 | 9.18 |
| C[C@@H]1Cc2nn3c(c2CN1C(=O)c1ccc(Cl)c(Cl)c1)C(=O)N(Cc1ccccc1OC(F)F)CC3 [Example C67] | 0.07 | 22.5 |
| COc1ccc(CN2CCn3nc4c(c3C2=O)CN(C(=O)c2ccc(C(F)F)c(F)c2)CC4)cc1 [Example C68] | 0.321 | 10.6 |
| C[C@@H]1Cc2nn3c(c2CN1C(=O)c1ccc(Cl)c(Cl)c1)C(=O)N(Cc1ccc(OC(F)F)cn1)CC3 [Example C69] | 0.063 | 14.5 |
| COc1ccc(CN2CCn3nc4c(c3C2=O)CN(C(=O)c2ccc(C(F)F)c(C#N)c2)CC4)cc1 [Example C70] | 0.232 | > 50 |
| O=C(c1ccc(Cl)cc1F)N1CCc2nn3c(c2C1)C(=O)N(Cc1ccccn1)CC3 [Example C72] | > 2.5 | > 50 |

| Structure (SMILES) | EC50 [1] [µM] | CC50 at 3 days [2] [µM] |
| --- | --- | --- |
| O=C(c1cnc(Cl)c(Cl)c1)N1CCc2nn3c(c2C1)C(=O)N(Cc1ccccn1)CC3 [Example C73] | > 2.5 | > 50 |
| Cc1cc(Cl)ccc1C(=O)N1CCc2nn3c(c2C1)C(=O)N(Cc1ccccn1)CC3 [Example C74] | > 2.5 | > 50 |
| COc1cc(Cl)ccc1C(=O)N1CCc2nn3c(c2C1)C(=O)N(Cc1ccccn1)CC3 [Example C76] | 0.983 | > 25 |
| O=C(c1ccc(Cl)c(F)c1)N1CCc2nn3c(c2C1)C(=O)N(Cc1ccccn1)CC3 [Example C78] | 0.707 | > 50 |
| C[C@@H]1Cc2nn3c(c2CN1C(=O)c1ccc(Cl)c(Cl)c1)C(=O)N(Cc1ccccc1F)CC3 [Example C80] | 0.05 | 26.1 |
| C[C@@H]1Cc2nn3c(c2CN1C(=O)c1ccc(Cl)c(Cl)c1)C(=O)N(Cc1ccc(C#N)cc1)CC3 [Example C82] | 0.019 | 32.5 |
| O=C(c1ccc(Cl)c(Cl)c1)N1CCc2nn3c(c2C1)C(=O)N(Cc1ccccn1)CCC3 [Example C83, 2-(3,4-dichlorobenzoyl)-10-(pyridin-2-ylmethyl)-1,2,3,4,7,8,9,10-octahydro-11H-pyrido[4′,3′:3,4]pyrazolo[1,5-a][1,4]diazepin-11-one] | 0.229 | > 50 |
| COc1ccc(C(C)N2CCn3nc4c(c3C2=O)CN(C(=O)c2ccc(Cl)c(Cl)c2)[C@H](C)C4)cc1F (stereo partly drawn) [Example C86] | 0.046 | > 50 |
| CC(c1cc[nH]n1)N1CCn2nc3c(c2C1=O)CN(C(=O)c1ccc(Cl)c(Cl)c1)[C@H](C)C3 (stereo partly drawn) [Example C87] | 0.066 | > 50 |
| CC(c1ccc(C#N)cc1)N1CCn2nc3c(c2C1=O)CN(C(=O)c1ccc(Cl)c(Cl)c1)[C@H](C)C3 (stereo partly drawn) [Example C88] | 0.038 | > 48 |
| C[C@@H]1Cc2nn3c(c2CN1C(=O)c1ccc(Cl)c(Cl)c1)C(=O)N(C(C)(C)c1ccc(OC(F)F)cc1)CC3 [Example C90] | 0.667 | 21.9 |
| C[C@@H]1Cc2nn3c(c2CN1C(=O)c1ccc(Cl)c(Cl)c1)C(=O)N(Cc1ccc(Cl)nc1)CC3 [Example C91] | 0.083 | 36.7 |
| COc1ccc(C(C)N2CCn3nc4c(c3C2=O)CN(C(=O)c2ccc(Cl)c(Cl)c2)[C@H](C)C4)cc1OC (stereo partly drawn) [Example C92] | 0.025 | 24.4 |
| CC(c1ccccc1)N1CCn2nc3c(c2C1=O)CN(C(=O)c1ccc(Cl)c(Cl)c1)[C@H](C)C3 (stereo partly drawn) [Example C93] | 0.055 | 30 |
| C[C@@H]1Cc2nn3c(c2CN1C(=O)c1cc2c(Cl)c(Cl)ccc2[nH]1)C(=O)N(Cc1ccccn1)CC3 [Example C94, (R)-2-(4,5-dichloro-1H-indole-2-carbonyl)-3-methyl-9-(pyridin-2-ylmethyl)-1,2,3,4,8,9-hexahydropyrido[4′,3′:3,4]pyrazolo[1,5-a]pyrazin-10(7H)-one] | 0.162 | 4.77 |
| C[C@@H]1Cc2nn3c(c2CN1C(=O)c1ccc(Cl)c(Cl)c1)C(=O)N(Cc1cccc(F)c1C#N)CC3 [Example C95] | 0.2 | > 47 |
| C[C@@H]1Cc2nn3c(c2CN1C(=O)c1cc2c(Cl)cccc2[nH]1)C(=O)N(Cc1ccccn1)CC3 [Example C96] | 0.025 | 10.7 |
| C[C@@H]1Cc2nn3c(c2CN1C(=O)c1cc2c(F)c(F)c(F)cc2[nH]1)C(=O)N(Cc1ccccn1)CC3 [Example C97] | 0.011 | 9.79 |
| CC(c1ccc(Br)cc1)N1CCn2nc3c(c2C1=O)CN(C(=O)c1ccc(Cl)c(Cl)c1)[C@H](C)C3 (stereo partly drawn) [Example C98] | 0.073 | 9.83 |
| CC(c1ccccn1)N1CCn2nc3c(c2C1=O)CN(C(=O)c1ccc(Cl)c(Cl)c1)[C@H](C)C3 (stereo partly drawn) [Example C99] | 0.072 | > 50 |
| C[C@@H]1Cc2nn3c(c2CN1C(=O)c1cc2c(C#N)c(F)ccc2[nH]1)C(=O)N(Cc1ccccn1)CC3 [Example C100] | 0.085 | 15.5 |
